Among the data in patent US6872805B2 (Bristol-Myers Squibb Company, priority 2000, dated 2005) are EC50 and IC50 values, retold here.

Assay [1] deals with HCV replicon in Huh7 cells. Description: HCV replicon cell-based assay. More on the design: species or system HCV strain 1B. The conditions noted are these: Hepatitis C virus, Huh-7, 96 h; HCV replicon, Huh7 cells, 4 days; activity ranges; read-out: EC50. The source says:
An HCV replicon whole cell system was established as described by Lohmann V, Korner F, Koch J, Herian U, Theilmann L, Bartenschlager R., Science 285(5424):110-3 (1999). This system enabled us to evaluate the effects of our HCV Protease compounds on HCV RNA replication. Briefly, using the HCV strain 1B sequence described in the Lohmann paper (Assession number:AJ238799), an HCV cDNA was generated encoding the 5′ internal ribosome entry site (IRES), the neo gene, the EMCV-IRES and the HCV nonstructural proteins, NS3-NS5B, and 3′ NTR. […] Resulting cell lines were characterized for positive and negative RNA production and protein production over time.
Huh7 cells, constitutively expressing the HCV replicon, were grown in DMEM containing 10% FCS (Fetal calf serum) and 1 mg/ml G418 (Gibco-BRL). Cells were seeded the night before (1.5×10^4 cells/well) in 96-well tissue-culture sterile plates. Compound was prepared in DMEM containing 4% FCS, 1:100 Penicillin/Streptomysin, 1:100 L-glutamine and 0.5% DMSO. Compound/DMSO mixes were added to the cells and incubated for 4 days at 37° C. After 4 days, cells were either lyzed using the Rneasy kit (Qiagen) to isolate and purify RNA for an EC50 determination or assessed for cytotoxicity using alamar Blue (Trek Diagnotstic Systems) for a CC50 reading. For an EC50 determination, purified total RNA was normalized using RiboGreen (Jones L J, Yue S T, Cheung C Y, Singer V L, Anal. Chem., 265(2):368-74 (1998)) and relative quantitation of HCV RNA expression assessed using the Taqmann procedure (Kolykhalov A A, Mihalik K, Feinstone S M, Rice C M, Journal of Virology 74, 2046-2051 (2000)). Briefly, RNA made to a volume of 5 μl (≦1 ng) was added to a 20 μl Ready-Mix containing the following: 5×EZ rTth buffer, 3 mM MnOAc2, 3 mM dNTPs, 200 nM forward primer, 600 nM reverse primer, 100 nM probe and rTth polymerase. Samples containing known concentrations of HCV RNA transcript were run as standards. Using the following cycling protocol (95° C., 1 min; 60° C., 0.5 min; 95° C., 2 min; 40 cycles of 94° C., 0.5 min, 60° C.; 1 min; and completing with 60° C., 10 min), HCV RNA expression was quantitated as described in the Perkin Elmer manual. The toxicity of compound (CC50) was determined by adding 1/10th volume of alamar Blue to the media incubating the cells. After 4 hr, the fluorescence signal from each well was read, with an excitation wavelength at 530 nm and an emission wavelength of 580 nm, using the Cytofluor Series 4000 (Perspective Biosystems).

Assay [2] has as its target HCV NS3/4A protease complex (Hepatitis C virus genotype 1a, UniProt P27958, C1454S/C1711G). Description: Recombinant HCV NS3/4A protease complex FRET peptide assay (strain not stated). It counts as biochemical. The conditions noted are these: IC50, NS3/4A protease enzyme assay, strain not stated; activity ranges.

Chain of HCV NS3/4A protease complex (P27958 1027-1711, stated change not applied): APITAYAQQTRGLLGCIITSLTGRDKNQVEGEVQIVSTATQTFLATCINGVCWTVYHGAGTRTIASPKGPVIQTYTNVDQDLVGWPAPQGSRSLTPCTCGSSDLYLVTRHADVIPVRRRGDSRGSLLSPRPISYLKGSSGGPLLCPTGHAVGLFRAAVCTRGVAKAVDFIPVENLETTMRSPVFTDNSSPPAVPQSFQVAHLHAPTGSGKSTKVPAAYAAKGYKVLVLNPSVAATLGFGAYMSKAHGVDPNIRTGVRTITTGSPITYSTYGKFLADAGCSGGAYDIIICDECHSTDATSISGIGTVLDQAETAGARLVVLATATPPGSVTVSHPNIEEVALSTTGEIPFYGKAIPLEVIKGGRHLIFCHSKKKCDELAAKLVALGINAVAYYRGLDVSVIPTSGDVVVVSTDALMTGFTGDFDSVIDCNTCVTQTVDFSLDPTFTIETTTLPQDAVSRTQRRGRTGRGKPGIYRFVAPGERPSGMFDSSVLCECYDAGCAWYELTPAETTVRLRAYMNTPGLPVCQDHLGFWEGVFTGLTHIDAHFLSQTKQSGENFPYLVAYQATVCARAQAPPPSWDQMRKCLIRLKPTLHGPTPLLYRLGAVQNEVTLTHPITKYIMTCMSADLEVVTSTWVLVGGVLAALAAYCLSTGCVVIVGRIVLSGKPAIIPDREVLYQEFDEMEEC
Chain of HCV NS3/4A protease complex (P27958 1027-1711, stated change not applied): as above

Regarding `C=CC1C[C@]1(NC(=O)[C@@H]1C[C@@H](Oc2cc(-c3ccccc3)nc3cc(OC)ccc23)CN1C(=O)[C@H](CC(C)C)NC(=O)OC(C)(C)C)C(=O)NS(=O)(=O)C1CC1` (stereo partly drawn) [Compound 33], the EC50 – broadly, the concentration that produces a half-maximal response – in assay [1] is less than 50 nM. In addition, in assay [2], the IC50 (as a rule, the concentration needed to halve the response being measured) is less than 50 nM.
In the case of `C=CC1C[C@]1(NC(=O)[C@@H]1C[C@@H](Oc2cc(-c3ccccc3)nc3cc(OC)ccc23)CN1C(=O)[C@H](CC(C)C)NC(=O)OC(C)(C)C)C(=O)NS(=O)(=O)C(C)C` (stereo partly drawn) [Compound 34], the EC50 in assay [1] is less than 500 nM. Moreover, the IC50 in assay [2] is less than 50 nM.
For `C=CC1C[C@]1(NC(=O)[C@@H]1C[C@@H](Oc2cc(-c3ccccc3)nc3cc(OC)ccc23)CN1C(=O)C(NC(=O)OC(C)(C)C)C(C)(C)C)C(=O)NS(=O)(=O)c1cccc2ccccc12` (stereo partly drawn) [Compound 35], in that order: less than 500 nM and less than 50 nM.
The like results for `C=CCC[C@](C)(NC(=O)[C@@H]1C[C@@H](Oc2cc(-c3ccccc3)nc3cc(OC)ccc23)CN1C(=O)C(NC(=O)OC(C)(C)C)C(C)(C)C)C(=O)NS(=O)(=O)c1cccc(C)c1` (stereo partly drawn) [Compound 36] were, in that order, less than 500 nM and less than 50 nM.
As to `C=CCC[C@](C)(NC(=O)[C@@H]1C[C@@H](Oc2cc(-c3ccccc3)nc3cc(OC)ccc23)CN1C(=O)C(NC(=O)OC(C)(C)C)C(C)(C)C)C(=O)NS(=O)(=O)c1ccc(C)cc1` (stereo partly drawn) [Compound 37], the EC50 in assay [1] was less than 50 nM. In addition, the IC50 in assay [2] is less than 50 nM.
As for `C=CCC[C@](C)(NC(=O)[C@@H]1C[C@@H](Oc2cc(-c3ccccc3)nc3cc(OC)ccc23)CN1C(=O)C(NC(=O)OC(C)(C)C)C(C)(C)C)C(=O)NS(=O)(=O)c1ccccc1` (stereo partly drawn) [Compound 38], the EC50 in assay [1] is less than 50 nM. In addition, the IC50 in assay [2] was less than 50 nM.
As for `C=CCC[C@](C)(NC(=O)[C@@H]1C[C@@H](Oc2cc(-c3ccccc3)nc3cc(OC)ccc23)CN1C(=O)C(NC(=O)OC(C)(C)C)C(C)(C)C)C(=O)NS(=O)(=O)c1cccc(C#N)c1` (stereo partly drawn) [Compound 40], the EC50 in assay [1] is less than 500 nM. In addition, in assay [2], the IC50 was less than 50 nM.
The like results for `C=CCC[C@](C)(NC(=O)[C@@H]1C[C@@H](Oc2cc(-c3ccccc3)nc3cc(OC)ccc23)CN1C(=O)C(NC(=O)OC(C)(C)C)C(C)(C)C)C(=O)NS(=O)(=O)c1ccc(C#N)cc1` (stereo partly drawn) [Compound 41] were, in that order, less than 500 nM and less than 50 nM.
For the compound `C=CCC[C@](C)(NC(=O)[C@@H]1C[C@@H](Oc2cc(-c3ccccc3)nc3cc(OC)ccc23)CN1C(=O)C(NC(=O)OC(C)(C)C)C(C)(C)C)C(=O)NS(=O)(=O)c1ccccc1Cl` (stereo partly drawn) [Compound 42], the EC50 in assay [1] is less than 500 nM. The IC50 in assay [2] is less than 50 nM.
For `C=CCC[C@](C)(NC(=O)[C@@H]1C[C@@H](Oc2cc(-c3ccccc3)nc3cc(OC)ccc23)CN1C(=O)C(NC(=O)OC(C)(C)C)C(C)(C)C)C(=O)NS(=O)(=O)c1cccc(Cl)c1` (stereo partly drawn) [Compound 43], in that order: less than 500 nM and less than 50 nM.
Consider `C=CCC[C@](C)(NC(=O)[C@@H]1C[C@@H](Oc2cc(-c3ccccc3)nc3cc(OC)ccc23)CN1C(=O)C(NC(=O)OC(C)(C)C)C(C)(C)C)C(=O)NS(=O)(=O)c1ccc(Cl)cc1` (stereo partly drawn) [Compound 44], for which the concentration for a half-maximal effect (EC50) in assay [1] was less than 500 nM. Also, the IC50 in assay [2] is less than 50 nM.
For `C=CCC[C@](C)(NC(=O)[C@@H]1C[C@@H](Oc2cc(-c3ccccc3)nc3cc(OC)ccc23)CN1C(=O)C(NC(=O)OC(C)(C)C)C(C)(C)C)C(=O)NS(=O)(=O)c1ccc(F)c(Cl)c1` (stereo partly drawn) [Compound 45], in that order: less than 500 nM and less than 50 nM.
The like results for `C=C1C[C@]1(NC(=O)[C@@H]1C[C@@H](Oc2cc(-c3ccccc3)nc3cc(OC)ccc23)CN1C(=O)C(NC(=O)OC(C)(C)C)C(C)(C)C)C(=O)NS(=O)(=O)c1cc(F)ccc1C` (stereo partly drawn) [Compound 46] were, in that order, less than 500 nM and less than 50 nM.
For `C=C1C[C@]1(NC(=O)[C@@H]1C[C@@H](Oc2cc(-c3ccccc3)nc3cc(OC)ccc23)CN1C(=O)C(NC(=O)OC(C)(C)C)C(C)(C)C)C(=O)NS(=O)(=O)c1ccccc1C(F)(F)F` (stereo partly drawn) [Compound 47], in that order: less than 500 nM and less than 50 nM.
On to `C=C1C[C@]1(NC(=O)[C@@H]1C[C@@H](Oc2cc(-c3ccccc3)nc3cc(OC)ccc23)CN1C(=O)C(NC(=O)OC(C)(C)C)C(C)(C)C)C(=O)NS(=O)(=O)c1cccc(C(F)(F)F)c1` (stereo partly drawn) [Compound 48], for which the concentration giving a half-maximal response (EC50) in assay [1] is less than 500 nM. The IC50 in assay [2] is less than 50 nM.
For `C=C1C[C@]1(NC(=O)[C@@H]1C[C@@H](Oc2cc(-c3ccccc3)nc3cc(OC)ccc23)CN1C(=O)C(NC(=O)OC(C)(C)C)C(C)(C)C)C(=O)NS(=O)(=O)c1ccc(F)cc1` (stereo partly drawn) [Compound 49], in that order: less than 500 nM and less than 50 nM.
On to `C=CC1C[C@]1(NC(=O)[C@@H]1C[C@@H](Oc2cc(-c3ccccc3)nc3cc(OC)ccc23)CN1C(=O)[C@@H](NC(=O)OC(C)(C)C)C(C)(C)C)C(=O)NS(=O)(=O)c1ccccc1C#N` (stereo partly drawn) [Compound 50], for which the EC50 in assay [1] was less than 5000 nM. Moreover, the IC50 in assay [2] is less than 500 nM.
For `C=CC1C[C@]1(NC(=O)[C@@H]1C[C@@H](Oc2cc(-c3ccccc3)nc3cc(OC)ccc23)CN1C(=O)[C@@H](NC(=O)OC(C)(C)C)C(C)(C)C)C(=O)NS(=O)(=O)c1ccccc1[N+](=O)[O-]` (stereo partly drawn) [Compound 51], in that order: less than 500 nM and less than 50 nM.
As for `C=CC1C[C@]1(NC(=O)[C@@H]1C[C@@H](Oc2cc(-c3ccccc3)nc3cc(OC)ccc23)CN1C(=O)[C@@H](NC(=O)OC(C)(C)C)C(C)(C)C)C(=O)NS(=O)(=O)c1ccc([N+](=O)[O-])cc1` (stereo partly drawn) [Compound 52], the EC50 in assay [1] is less than 500 nM. Further, the half-inhibitory concentration (IC50) in assay [2] is less than 500 nM.
With `C=CC1C[C@]1(NC(=O)[C@@H]1C[C@@H](Oc2cc(-c3ccccc3)nc3cc(OC)ccc23)CN1C(=O)[C@@H](NC(=O)OC(C)(C)C)C(C)(C)C)C(=O)NS(=O)(=O)c1cccc([N+](=O)[O-])c1` (stereo partly drawn) [Compound 53], the concentration giving a half-maximal response (EC50) in assay [1] was less than 50000 nM. Moreover, in assay [2], the 50% inhibitory concentration (IC50) is less than 50 nM.
For `C=C1C[C@]1(NC(=O)[C@@H]1C[C@@H](Oc2cc(-c3ccccc3)nc3cc(OC)ccc23)CN1C(=O)C(NC(=O)OC(C)(C)C)C(C)(C)C)C(=O)NS(=O)(=O)c1ccccc1F` (stereo partly drawn) [Compound 54], in that order: less than 500 nM and less than 50 nM.
In the case of `C=C1C[C@]1(NC(=O)[C@@H]1C[C@@H](Oc2cc(-c3ccccc3)nc3cc(OC)ccc23)CN1C(=O)C(NC(=O)OC(C)(C)C)C(C)(C)C)C(=O)NS(=O)(=O)c1cccc(Br)c1` (stereo partly drawn) [Compound 55], in assay [1], the EC50 is less than 50 nM. Further, the IC50 in assay [2] was less than 50 nM.
For `C=CC1C[C@]1(NC(=O)[C@@H]1C[C@@H](Oc2cc(-c3ccccc3)nc3cc(OC)ccc23)CN1C(=O)C(NC(=O)OC(C)(C)C)C(C)(C)C)C(=O)NS(=O)(=O)c1ccccc1I` (stereo partly drawn) [Compound 56], the EC50 in assay [1] was less than 500 nM. Further, in assay [2], the 50% inhibitory concentration (IC50) is less than 50 nM.
On to `C=CC1C[C@]1(NC(=O)[C@@H]1C[C@@H](Oc2cc(-c3ccccc3)nc3cc(OC)ccc23)CN1C(=O)C(NC(=O)OC(C)(C)C)C(C)(C)C)C(=O)NS(=O)(=O)c1ccccc1C(=O)OC` (stereo partly drawn) [Compound 57], for which the EC50 in assay [1] is less than 500 nM. The 50% inhibitory concentration (IC50) in assay [2] was less than 500 nM.
As for `C=CC1C[C@]1(NC(=O)[C@@H]1C[C@@H](Oc2cc(-c3ccccc3)nc3cc(OC)ccc23)CN1C(=O)C(NC(=O)OC(C)(C)C)C(C)(C)C)C(=O)NS(=O)(=O)c1ccc(OC)cc1` (stereo partly drawn) [Compound 59], the EC50 in assay [1] is less than 50 nM. Moreover, in assay [2], the IC50 is less than 50 nM.
Consider `C=CC1C[C@]1(NC(=O)[C@@H]1C[C@@H](Oc2cc(-c3ccccc3)nc3cc(OC)ccc23)CN1C(=O)C(NC(=O)OC(C)(C)C)C(C)(C)C)C(=O)NS(=O)(=O)c1ccc(C(C)(C)C)cc1` (stereo partly drawn) [Compound 60], for which the EC50 in assay [1] was less than 500 nM. The IC50 in assay [2] is less than 500 nM.
For `C=CC1C[C@]1(NC(=O)[C@@H]1C[C@@H](Oc2cc(-c3ccccc3)nc3cc(OC)ccc23)CN1C(=O)[C@@H](NC(=O)OC(C)(C)C)C(C)(C)C)C(=O)N[S+]([O-])C(C)(C)C` (stereo partly drawn) [Compound 61], the EC50 in assay [1] is less than 5000 nM. In addition, in assay [2], the IC50 is less than 500 nM.
